# Like-named read-outs stand apart in the source and are kept apart here.
# Key:
# [1] = in vivo; cited from earlier work
# [2] = test system: trace amine-associated receptors (TAARs); conditions: cited from earlier work
# in vivo [3] = conditions: dog, sc, 0.5 mg/kg; for Vd/F: Vz/F (mean)
# 5-HT2A receptor = conditions: cited from earlier work
# sigma-1 receptor = conditions: cited from earlier work
# [4] = test system: serotonin transporter (SERT); conditions: cited from earlier work
# [5] = test system: 5-hydroxytryptamine-(5-HT)1A; conditions: cited from earlier work
# [6] = cited from earlier work
# [7] = dog, in vivo, sc
# 5-HT2C = conditions: cited from earlier work
# 5-HT2A = conditions: cited from earlier work
# [8] = parameters: species or system male Beagle dogs; conditions: dog, in vivo, sc, 1 mg/kg
# Description: D: Dose Concentration and Dose Volume—Pharmacokinetics of DMT-d10 in Male Beagle Dogs Following Subcutaneous Administration at 1 mg/kg Formulated in Hyaluronic Acid Concentrations at Higher Dosing Solution Concentrations and Lower Dosing Volume
# The objective of this study was to determine the effect of increasing the dosing solution concentration of DMT-d10 and decreasing the dose volume on the SC release of DMT-d10 into the systemic circulation. This study was conducted using the same CRO, housing, and materials as described above in part A. All conditions described in part A pertain to this study with the exceptions noted below.
# Test Items. […]
# […]. Once homogeneous, the density was measured to be 1.000 g/cm^3. […] The visual appearance was recorded as a clear/yellowish homogenous solution at this stage. The pH was measured using a calibrated pH meter and recorded to be 3.24. […] The density was measured to be 1.012 g/cm^3. […]
# […]. The density of the resultant 0.8% (w/v, nominal) sodium hyaluronate solution was recorded to be 1.002 g/cm^3. […] The final visual appearance of the formulation was recorded as a clear, colorless, homogenous solution.
# (§1) Subcutaneous injections. […] Appropriate volumes of dose were calculated per each animal based on real animal bodyweights and a target dose volume of 0.05 mL/kg or 0.25 mL/kg. […]
# [9] = parameters: species or system male Beagle dogs; conditions: dog, in vivo, sc
# Description: (§2) Prior to acceptance for use on study, animals were subject to an examination and the results found to be satisfactory. All animals were weighed prior to each dose administration and the bodyweights recorded. Animals were checked regularly throughout the duration of the study. Any clinical signs were closely monitored and recorded.
# Subcutaneous injections. The target dose was 0.1 mg/kg, free base at a dose concentration of 0.4 mg/mL. Appropriate volumes of dose were calculated per each animal based on real animal bodyweights and a target dose volume of 0.25 mL/kg. The volumes were pulled into plastic Troge 2.5 mL syringes. Animals were identified by microchip and tattoo. […]
# Subcutaneous injections. […] Appropriate volumes of dose were calculated per each animal based on real animal bodyweights and a target dose volume of 0.25 mL/kg. […]
# as §1
# Subcutaneous injections. DMT+DMT-d10 were co-dosed (via Formulation 35) at 0.5 mg/kg/analyte, total dose of 1.0 mg/kg (free base), each at a dose concentration of 10 mg/mL (nominal), total dose concentration of 20 mg/mL (nominal) and a dose volume of 0.05 mL/kg calculated per each animal based on real animal bodyweights. […]
# in vivo [10] = test: in vivo; parameters: species or system male Beagle dogs; conditions: dog
# Text: A: Proof of Concept—Pharmacokinetics (PK) of DMT-d10 in Male Beagle Dogs Following Subcutaneous Administration in Saline or Sodium Hyaluronate
# The objective of this study was to determine if a 1% (w/v) sodium hyaluronate formulation could modify the SC release of DMT-d10 compared to 0.9% (w/v) saline formulation.
# Animals. Three, non-naïve, male Beagle dogs aged ca 2-5 years and weighing 10-15 kg at dosing were supplied by Charles River for use on this study and were bred for use in scientific procedures. The animal work in this study was conducted under the UK Home Office Project License No. PPL PP9376768, Pharmacokinetics of Pharmaceuticals. This was a cross-over design study to reduce the number of dogs in use and as well as decrease interindividual variability.
# Housing. Animals were uniquely identified by microchip and tattoo in this study. During pre-trial and on-study periods, the animals were group housed in caging appropriate to the species. The animals were housed singly for up to 4 h per day and during this time had access to their daily ration of diet.
# IPS 5007 diet was provided as a daily ration throughout the study. A 350 g ration of feed per dog was provided once daily, except during designated procedures. On the morning of dosing (pre-dose), the animals were deprived from their daily food allowance until 2 h post dose. Mains quality tap water was available ad libitum. Details of diet and water are maintained at the test facility.
# as §2
# Test Items. DMT-d10 fumarate was formulated as a solution in 0.9% (w/v) saline, pH 5.5-6 (control) or in 1% (w/v, nominal) sodium hyaluronate in water for injection (WFI) (Formulation 28) at a free base concentration of 0.4 mg/mL (nominal) for SC injection. Each test item was prepared on the morning of dose administration and stored at ambient temperature, protected from light, until dosing.
# Control (0.9% w/v saline): On the day prior to dosing, DMT-d10 fumarate was removed from storage (frozen, in a freezer set to maintain ≤−20° C., protected from light) and allowed to equilibrate to room temperature. Using a precision analytical balance, 9.7 mg of DMT-d10 fumarate was weighed into a 20 mL headspace vial which was pre-calibrated to a final volume of 15 mL with a magnetic stir bar inside. The weighed API was returned to storage. On the morning of dosing, the weighed API was removed from storage and allowed to equilibrate to room temperature. 13.55 mL of vehicle (0.9% w/v saline) was added to the vial (equivalent to 90% of final volume) and set to magnetically stir for ca 35 minutes. Using a calibrated pH meter, the solution pH was measured. […] The solution was made to final volume of 15 mL, using the pre-calibrated line, with 0.9% w/v saline. The final pH was recorded as 5.53. The solution was then filtered using a […] PVDF syringe filter in the laminar air flow cabinet (LAFC). The visual appearance of the solution was recorded as a clear, colorless, homogenous solution. […] The control solution was protected from light at all times.
# Formulation 28: On the morning of dosing, DMT-d10 fumarate was removed from storage (frozen, in a freezer set to maintain ≤−20° C., protected from light) and allowed to equilibrate to room temperature. Using a precision analytical balance, 11.02 mg of DMT-d10 fumarate was weighed into a 20 mL headspace vial containing a magnetic stir bar. 3.5 mL of WFI was added to the vial and set to stir, making a stock solution with a free base concentration of 2 mg/mL (nominal) DMT-d10. Once homogenous, 2 mL of the stock solution was dispensed into a vial containing 8 mL of 1.25% (w/v, nominal) sodium hyaluronate and vortex mixed until homogenous. […]
smiles,measurement,setting,value
"CN(C)CCc1c[nH]c2ccccc12 [DMT, 2-(1H-indol-3-yl)-N,N-dimethylethan-1-amine]",therapeutically relevant psychedelic dose,[1],≥ 70 mg
same,binding to TAARs,[2],binds to other receptors
same,AUC(0-inf),in vivo [3],48.7 ng·h/mL
same,CL/F,in vivo [3],173 mL/min/kg
same,Cmax,in vivo [3],58.1 ng/mL
same,MRT inf,in vivo [3],52 min
same,Tmax,in vivo [3],30 min
same,half-life,in vivo [3],32 min
same,Vd/F,in vivo [3],7.59 L/kg
same,agonism at the 5-HT2A receptor,5-HT2A receptor,potent agonist
same,binding to sigma-1 receptor,sigma-1 receptor,binds to other receptors
same,binding to SERT,[4],binds with affinity
same,binding to 5-HT1A,[5],binds with affinity
same,oral activity,"[6]; in vivo, po",not orally active
same,plasma concentrations quantifiable to,[7],≤ 2 h
same,binding to 5-HT2C,5-HT2C,binds with affinity
same,binding to 5-HT2A,5-HT2A,binds with affinity
"[2H]C([2H])([2H])N(C([2H])([2H])[2H])C([2H])([2H])C([2H])([2H])c1c[nH]c2ccccc12 [DMT-d10, 2-(1H-indol-3-yl)-N,N-bis(methyl-d3)ethan-1-amine-1,1,2,2-d4]",AUC(0-inf),in vivo [3],109 ng·h/mL
same,CL/F,in vivo [3],77.5 mL/min/kg
same,Cmax,in vivo [3],75.6 ng/mL
same,MRT inf,in vivo [3],73.8 min
same,Tmax,in vivo [3],30 min
same,half-life,in vivo [3],43.3 min
same,Vd/F,in vivo [3],4.73 L/kg
same,plasma DMT-d10 concentrations quantifiable up to,[8],up to 4 hours
same,decrease of apparent clearance (Cl/F) by deuteration,[7],2.2 ×
same,decrease of apparent volume of distribution (Vz/F) by deuteration,[7],1.6 ×
same,increase of AUCinf by deuteration,[7],2.2 ×
same,increase of Cmax by deuteration,[7],1.3 ×
same,increase of MRTinf by deuteration,[7],1.4 ×
same,increase of t1/2 by deuteration,[7],1.4 ×
same,plasma concentrations quantifiable to,[7],≤ 4 h
same,Vz/F (mean),[7]; 0.5 mg/kg,4.72 L/kg
same,adverse reactions to the administration,[9],No adverse reactions
same,clinical signs post-dose,[9],"Mild, transient clinical signs"
same,dose proportionality of Cmax and AUCinf,in vivo [10],increased in a dose proportional manner
same,plasma DMT-d10 concentrations quantifiable up to,in vivo [10],up to 4 hours
same,MRT inf,in vivo [10]; sc,~90 min
same,Tmax,in vivo [10]; sc,30 to 45 min
same,half-life,in vivo [10]; sc,~54 min
same,plasma DMT-d10 concentrations quantifiable up to,in vivo [10]; sc,up to 4 hours
"COc1ccc2[nH]cc(CCN(C)C)c2c1 [Formulation 5-MeO-DMT, 5-methoxy-N,N-dimethyltryptamine]",oral bioavailability,[6]; oral,lacks oral bioavailability
